Read-outs that look alike come from different tables or passages of the source.
Test system: MCF7 cells
Experiment: PI high content imaging of G1 arrest and cell proliferation, MCF7
Assay type: cell-based
Conditions: Homo sapiens
Experimental: Relative IC50/EC50 values were determined by curve fitting to a four parameter logistic equation: Y = bottom + ((top-bottom)/ (1+exp(HillSlope*(X – LnIC50)), where X is the natural log of dose/concentration, Y is response, decreasing as X increases, top and bottom are plateaus in the same units as Y, lnIC50 is the natural log of potency, in the same log units as X, and HillSlope measures the steepness of the curve. Data were plotted using GraphPad Prism. […]
Preclinical characterization of abemaciclib in hormone receptor […]
METHODS High content imaging cell-based assays for monitoring phosphorylation of Rb (ser780), G1 arrest and […]
ATP at 20°C by a secondary goat anti-mouse IgG-Alexa Fluor 488 in a 96-well plate filtration assay format. […] Plates were read in an kinase buffer containing 68 mM Hepes at pH 7.5, 6.67 mM Acumen Explorer eX3 (TTP Labtech). […] 10µL of CDK6/cyclin corresponding to 500-530 nm and the percentage of D3 enzyme complex (Millipore 14-519, #D13BP009NA) cells with pRb signal relative to the total PI stained (1 nM final concentration in the assay) was added onto subpopulation was calculated by the instrument’s software a mix of substrate and test compound. […]
(EDTA) was used to determine the level of background evaluated by measuring PI signal using high content 33P in the absence of enzyme activity. […]

IC50 (n = 2, read-out: IC50 2n (G1 arrest)): 54 ± 16 nM | IC50 (n = 2, read-out: IC50 Cell number): 369 ± 370 nM
Structure (SMILES): CCN1CCN(Cc2ccc(Nc3ncc(F)c(-c4cc(F)c5nc(C)n(C(C)C)c5c4)n3)nc2)CC1 [abemaciclib, Abemaciclib]

Reference: publication PMC5642494 (Oncotarget, 2017)
